Three molecules from ChEMBL document CHEMBL4680308, “Chemo-enzymatic synthesis of adenine substituted nicotinic acid adenine dinucleotide phosphate (NAADP) analogs” (Bioorg Med Chem, 2021) can be followed below.

A word on the EC50: it is the concentration giving half of the maximal effect. For orientation: IC50 means the midpoint of a concentration-inhibition curve.

The nature of assay [1]: Agonist activity at NAADP receptor in sea urchin egg homogenate assessed as increase in calcium release by fluo-3 based flurometric assay. Type of assay: tissue-based, Strongylocentrotus purpuratus.
The nature of assay [2]: Desensitization of NAADP receptor in sea urchin egg homogenate assessed as ability to induce time dependent sub-threshold desensitization of calcium release pretreated for 7 mins followed by 1 uM NAADP added by measuring inhibition of calcium release by fluorometric assay. The assay is classed as tissue-based, Strongylocentrotus purpuratus.

As to `Nc1ncnc2c1ncn2[C@@H]1O[C@H](COP(=O)(O)OP(=O)(O)OC[C@H]2O[C@@H]([n+]3cccc(C(=O)[O-])c3)[C@H](O)[C@@H]2O)[C@@H](O)[C@H]1OP(=O)(O)O`, in assay [1], the EC50 is 0.008 µM. The half-inhibitory concentration (IC50) in assay [2] came to 0.00014 µM.

With `C#Cc1nc2c(N)ncnc2n1[C@@H]1O[C@H](COP(=O)(O)OP(=O)(O)OC[C@H]2O[C@@H]([n+]3cccc(C(=O)[O-])c3)[C@H](O)[C@@H]2O)[C@@H](O)[C@H]1OP(=O)(O)O`, in assay [1], the concentration for a half-maximal effect (EC50) stood at 0.71 µM. Further, the IC50 in assay [2] was 0.0121 µM.

`C#Cc1nc2c(N)ncnc2n1[C@@H]1O[C@H](COP(=O)(O)OP(=O)(O)OC[C@H]2O[C@@H]([n+]3cc(N=[N+]=[N-])cc(C(=O)[O-])c3)[C@H](O)[C@@H]2O)[C@@H](O)[C@H]1OP(=O)(O)O`: the EC50 in assay [1] amounted to 2.86 µM. Besides, the IC50 in assay [2] was determined as 0.099 µM.
